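Results reflect a 48-hour exposure of cells in 96-well plates to compound at five concentrations. GI50 marks 50% less growth. TGI: concentration producing complete growth inhibition.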
Assays:
Assay in all cases: NCI tumour cell line growth inhibition, 48 h
SNB-75 CNS = test system: SNB-75 CNS
ACHN renal = test system: ACHN renal
SNB-19 CNS = test system: SNB-19 CNS
IGROV1 ovarian = test system: IGROV1 ovarian
EKVX NSCLC = test system: EKVX NSCLC
PC-3 prostate = test system: PC-3 prostate
SK-MEL-28 melanoma = test system: SK-MEL-28 melanoma
RPMI-8226 leukemia = test system: RPMI-8226 leukemia
MOLT-4 leukemia = test system: MOLT-4 leukemia
NCI/ADR-RES ovarian = test system: NCI/ADR-RES ovarian

| Compound | GI50 (SNB-75 CNS) [µM] | TGI (SNB-75 CNS) [µM] | GI50 (ACHN renal) [µM] | TGI (ACHN renal) [µM] | GI50 (SNB-19 CNS) [µM] | TGI (SNB-19 CNS) [µM] | GI50 (IGROV1 ovarian) [µM] | TGI (IGROV1 ovarian) [µM] | GI50 (EKVX NSCLC) [µM] | TGI (EKVX NSCLC) [µM] | GI50 (PC-3 prostate) [µM] | TGI (PC-3 prostate) [µM] | GI50 (SK-MEL-28 melanoma) [µM] | TGI (SK-MEL-28 melanoma) [µM] | GI50 (RPMI-8226 leukemia) [µM] | TGI (RPMI-8226 leukemia) [µM] | TGI (MOLT-4 leukemia) [µM] | GI50 (NCI/ADR-RES ovarian) [µM] | TGI (NCI/ADR-RES ovarian) [µM] | GI50 (MOLT-4 leukemia) [µM] |
| --- | --- | --- | --- | --- | --- | --- | --- | --- | --- | --- | --- | --- | --- | --- | --- | --- | --- | --- | --- | --- |
| CC1=C([Se]CC(OC(=O)[C@@H](CO)NC(=O)OC(C)(C)C)C(=O)NC(C)(C)C)C(=O)c2ccccc2C1=O (some centres undefined) | 1.3 | 2.6 | 1.57 | 3.02 | 0.66 | 2 | 1.66 | 3.27 | 1.76 | 3.71 | 1.35 | 2.85 | 2.06 | 3.55 | 2.74 | 8.91 |  |  |  |  |
| O=C(Nc1ccccc1Br)c1cccc([N+](=O)[O-])c1O |  | 53.1 |  | > 36.8 |  | > 100 |  | > 59.7 |  | 42.9 |  |  |  | 59.9 |  | 6.27 | 10.4 |  |  |  |
| COc1ccc(-c2cc(/C=C3\C(=O)Nc4ccc(OC)cc43)[nH]n2)cc1 | 3.19 | 25.5 | > 100 | > 100 | 77.2 | > 100 | > 100 | > 100 |  |  | > 100 | > 100 | > 100 | > 100 | > 100 | > 100 | > 100 | 31.8 | > 100 | > 100 |
| N#CC(C#N)=CSc1ccccc1 |  | 74.8 |  | > 100 |  | > 100 |  | 35.7 |  | > 100 |  |  |  | 81.1 |  | > 100 | > 100 |  |  |  |
| O=C(O)CCC1(Br)CCCCC(Br)C1=O (centres undefined) |  | > 100 |  | > 100 |  | > 100 |  | > 100 |  | > 100 |  |  |  | > 100 |  | > 100 | > 100 |  |  |  |
| O=C(O)C1c2ccccc2C(C(=O)O)c2ccccc21 (centres undefined) |  | > 100 |  | > 100 |  | > 100 |  | > 100 |  |  |  |  |  |  |  | > 100 | > 100 |  |  |  |
| CC(=O)OCC1OC(OC2=C(CC=C(Cl)Cl)C(=O)c3ccccc3C2=O)C(OC(C)=O)C(OC(C)=O)C1OC(C)=O (centres undefined) | 2.68 | 19.9 | 3.24 | 12 | 11.8 | 24.8 | 0.869 | 3.11 |  |  | 2.66 | 11.5 | 3.93 | 12.8 | 2.05 | 6.78 | 9.89 | 4.23 | 51.9 | 1.43 |
| O=C(O)C#CCO |  | > 100 |  | > 100 |  | > 100 |  | > 100 |  | > 100 |  |  |  | > 100 |  | > 100 | > 100 |  |  |  |
| O=c1c2ccccc2c(=O)c2c1cc(Cl)c1[nH]c3c([nH]c12)c(Cl)cc1c(=O)c2ccccc2c(=O)c13 |  | > 100 |  | > 100 |  | > 100 |  | > 100 |  | > 100 |  |  |  | > 100 |  | > 100 | > 100 |  |  |  |
| N#CCC(=O)N/N=C1\C(=O)N(c2ccc(Cl)cc2)C(=O)C(=O)C1c1nc2ccccc2o1 (centres undefined) |  | > 100 |  | > 100 |  | > 100 |  | > 100 |  | > 100 |  |  |  | > 100 |  |  | > 100 |  |  |  |
| Clc1ccc(OC2CCO2)cc1Cl (centres undefined) |  | > 100 |  | > 100 |  | > 100 |  | > 100 |  | > 100 |  |  |  | > 100 |  | > 100 | > 100 |  |  |  |
| COC(=O)[C@@]1(C)CC[C@]2(C)CC[C@]3(C)C4=CC=C5C(=CC(=O)C(O)=C5C)[C@]4(C)CC[C@@]3(C)[C@@H]2C1 | 0.313 | 0.854 | 0.154 | 0.29 | 0.276 | 0.936 | 0.198 | 0.46 | 0.295 | 1.11 | 0.24 | 0.573 | 0.244 | 0.601 | 0.183 | 0.517 | 0.525 |  |  | 0.164 |
| C/C(=N/NC(=O)C(N)=O)C(CC(C(=O)Nc1ccccc1C)/C(C)=N\NC(=O)C(N)=O)C(=O)Nc1ccccc1C (centres undefined) |  | > 100 |  | > 100 |  | > 100 |  | > 100 |  | > 100 |  |  |  | > 100 |  | > 100 | > 100 |  |  |  |
| COc1ccc(-c2nn(-c3cccc(NC(=O)Nc4cc(C(F)(F)F)cc(C(F)(F)F)c4)c3)cc2-c2ccncc2)cc1Cl | 0.813 | 4.18 | 1.14 | 50 | 1.62 | 18.2 | 2.08 | 31.6 |  |  | 0.448 | 2.92 | 1.14 | 4.18 | 0.54 | 2.68 | 4 | 1.25 | 13.3 | 1.2 |
| COC(=O)C1CCC(Nc2cccc(C(F)(F)F)c2)=N1 (centres undefined) |  | > 100 |  | > 100 |  | > 100 |  | > 100 |  | > 100 |  |  |  | > 100 |  | > 100 | > 100 |  |  |  |
| Cc1cc(NS(=O)(=O)c2ccc(NC(=O)c3cccc4c(Nc5ccc(S(=O)(=O)Nc6cc(C)on6)cc5)c5ccccc5nc34)cc2)no1 |  | 77.4 |  | > 100 |  | 88.7 |  | 76.5 |  | > 100 |  |  |  | > 100 |  | > 100 | 95.4 |  |  |  |
| CC(=O)OC1C(CCl)OC(N=[N+]=[N-])C(OC(C)=O)C1OC(C)=O (centres undefined) |  | > 100 |  | > 100 |  | > 100 |  | > 100 |  | > 100 |  |  |  | > 100 |  | > 100 | > 100 |  |  |  |
| CCC[CH2][Sn]([CH2]CCC)([O]C(=O)c1nccnc1N)[O]C(=O)c1nccnc1N | 0.87 | 2.12 | 1.02 | 2.19 | 1.4 | 2.69 | 1.33 | 2.68 | 1.02 | 2.18 |  |  | 0.769 | 2.04 |  |  | 1.1 |  |  | 0.257 |
| CC1=C(c2cc(C(=O)Nc3ccc(Cl)c(Cl)c3)nc(N)n2)Sc2ccccc2N1 |  | > 100 |  | > 100 |  | > 100 |  | > 100 |  | > 100 |  |  |  | > 100 |  | > 100 | > 100 |  |  |  |
| CCOc1ccc(N=Nc2ccc3oc(=O)c(C(=O)Nc4ccc(OC)cc4)cc3c2)cc1 |  | 93.7 |  |  |  | 46.6 |  | > 100 |  | 86.7 |  |  |  | 68 |  | > 100 | 44.4 |  |  |  |
| Cc1cc(C)cc(Sc2c([N+](=O)[O-])ncn2C)c1 |  | 62.5 |  | > 100 |  | > 100 |  | 55.1 |  | > 100 |  |  |  | 30 |  | > 100 | 38.2 |  |  |  |
| O=C1C(Cl)=C(Nc2cccc(O)c2)C(=O)N1c1ccc(Cl)c(Cl)c1 |  |  | 17.3 | 33.3 | 36 | > 100 | 28.4 | > 100 |  |  | 19 | 49.6 | 40.6 | > 100 | 15.9 | 57.7 | > 100 | 22.4 | 52.3 | 15.1 |
| CC[O-].Cc1ccc2cccc([O-])c2n1.Cc1ccc2cccc([O-])c2n1.Cc1ccc2cccc([O-])c2n1.[Ti+4] | 63.8 | > 100 | 50.3 | > 100 | > 53.9 | > 100 | 43.2 | > 100 | > 46 | > 73.5 |  |  | > 65.2 | > 100 | 11.5 | 49.5 | 35.8 |  |  | 6.07 |
| CC(C)(C)[Si](C)(C)O/N=C\c1ccc(O[Si](C)(C)C(C)(C)C)cc1 |  | > 100 |  | > 100 |  | > 100 |  | > 100 |  | > 100 |  |  |  |  |  | > 100 | > 100 |  |  |  |
| C[C@H]1CC(=O)C2=CCCC3(SCCCS3)[C@@H]2[C@H]1CO |  | > 100 |  | > 100 |  | > 100 |  | > 100 |  | > 100 |  |  |  | > 100 |  | > 100 | > 100 |  |  |  |
| CN(c1ccccc1)C1C(=O)N(c2ccccc2)C1/C=C/c1ccccc1 (centres undefined) |  | > 100 |  | > 100 |  | > 100 |  | > 100 |  | > 100 |  |  |  | > 100 |  | > 100 | > 100 |  |  |  |
| C=C1Oc2nc3ccccc3c(=O)n2C1(C)C |  |  |  | > 100 |  | > 100 |  | > 100 |  | > 100 |  |  |  | > 100 |  | > 100 | > 100 |  |  |  |
| Cc1cc(C(=O)N2CCN(Cc3ccccc3)CC2)c(C)o1 |  | > 100 |  | > 100 |  | > 100 |  | > 100 |  | > 100 |  |  |  | > 100 |  | > 100 | > 100 |  |  |  |
| COc1ccc(/C=C/c2cc(N3CCOCC3)c3cc(F)c(F)cc3n2)cc1OC | 1.06 | 6.63 | 0.615 | 12.4 | 1.11 | 12.4 | 0.968 | 9.67 |  |  | 0.846 | 14.4 | 1.44 | 11.6 | 1.5 | 9 | 11 | 0.432 | 3.03 | 0.624 |
| C=C(CS(=O)(=O)c1ccccc1)[P+](c1ccccc1)(c1ccccc1)c1ccccc1 |  | 67.3 |  | 53.1 |  | > 100 |  | 68.4 |  | > 100 |  |  |  | 25.5 |  | 11.4 | 39.6 |  |  |  |

Reference: PubChem BioAssay (NCI)
